Assay results reported in patent US8846691B2, “Heterocyclic carboxylic acid derivatives having a 2,5,7-substituted oxazolopyrimidine ring” (Sanofi, priority 2010, dated 2014).

Each molecule was assayed against T1, human Edg 1 receptor (Homo sapiens, UniProt P21453) (assay: GTP-γ-S assay using human Edg 1 receptors (scintillation proximity assay, CHO Flp-In membrane preparation)). Conditions: test compound at 10 μM; high control 10 μM S1P regarded as 100% activation; background-corrected; triplicate; read-out: % activation (Edg 1 receptor activation in percent of the activation by 10 μM S1P).
T1 construct: expressed in transfected cells; membrane preparation
T1 sequence (P21453 whole entry): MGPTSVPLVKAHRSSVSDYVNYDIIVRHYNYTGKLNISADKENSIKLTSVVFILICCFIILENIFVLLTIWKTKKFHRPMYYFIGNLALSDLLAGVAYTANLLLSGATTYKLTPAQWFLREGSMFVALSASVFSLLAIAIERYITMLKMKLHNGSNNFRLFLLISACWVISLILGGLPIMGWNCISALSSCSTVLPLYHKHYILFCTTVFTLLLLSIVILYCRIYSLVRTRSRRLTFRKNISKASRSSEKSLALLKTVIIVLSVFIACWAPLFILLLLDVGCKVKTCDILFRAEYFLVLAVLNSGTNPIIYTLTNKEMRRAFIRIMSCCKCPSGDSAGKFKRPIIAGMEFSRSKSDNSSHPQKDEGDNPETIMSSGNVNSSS
Format: biochemical
Source text: Determination of the Pharmacological Activity A) GTP-γ-S Assay Using Human Edg 1 Receptors
In order to determine the Edg 1 receptor activation by the compounds of the invention, a GTP-γ-S ((GTP-γ-S=guanosine 5′-[thio]triphosphate) assay for G-protein coupled receptor binding based on the scintillation proximity assay principle was used, employing a cell membrane preparation from a CHO Flp-In cell line which constitutively overexpresses the human Edg 1 receptor.
The Flp-In™ expression system (Invitrogen, cat. no. K6010-01) allows the generation of stable mammalian cell lines into which the gene of interest has been integrated through homologous recombination at a specific genomic location called Flp Recombination Target (FRT) site by means of a Flp recombinase encoded by the pOG44 expression plasmid. The integration of the pcDNA5/FRT expression construct into the Flp-In host cell line genome results in the transcription of the gene of interest. The stably transfected cells become hygromycin-resistant.
One day prior to transfection, 200 000 Flp-In-CHO cells were seeded in Ham F-12 medium (Invitrogen, cat. no. 31765) supplemented with 10% fetal calf serum (FCS; Perbio Science, cat. no. SH30068.03) in a 6-well plate and incubated at 37° C./5% CO2 overnight. Using the FuGENE® 6 transfection reagent (Roche, cat. no. 11988387001), cells were cotransfected with the Flp recombinase expression plasmid pOG44 and a modified plasmid additionally containing the edg 1 gene (accession no. NM_001400) termed as pcDNA5-FRT-TO_nFLAG_DEST-EDG 1 with a 9:1 ratio. To obtain the modified pcDNA5-FRT-TO_nFLAG_DEST plasmid, the Invitrogen plasmid pcDNA5/FRT/TO (Invitrogen, cat. no. V6520-20) was adapted to the Gateway® (Invitrogen) cloning system by inserting a Gateway cassette containing attR recombination sites flanking a ccdB gene and a chloramphenicol-resistance gene (Gateway conversion system, Invitrogen, cat. no. 11828-029). In addition a FLAG tag epitope was added before the 5′ att recombination site to allow recombinant expression of N-terminally FLAG-tagged proteins.
For the transfection of one well, 1.08 μg of pOG44 and 0.12 μg of pcDNA5-FRT-TO_nFLAG_DEST-EDG 1 were mixed with 100 μl of serum-free Ham F-12 medium containing 6 μl of FuGENE® 6 transfection reagent. After 20 min of incubation, the transfection reagent/DNA complex was distributed dropwise on the cells. The cells were incubated for 24 h at 37° C. Then the cells from 3 wells were transferred to a T75 flask (Greiner Cellstar®, cat. no. 658175) containing Ham F-12 medium supplemented with 10% of FCS but without antibiotic and were incubated for another 24 h. 48 h after transfection, the medium was replaced by selection medium (Ham F-12 supplemented with 10% of FCS and 300 μg/ml of hygromycin B (Invitrogen, cat. no. 10687-010)). The medium was exchanged every 2 to 3 days until a resistant population of cells had grown. […] After 2 weeks of selection, the cells were transferred into T175 flasks (Greiner Cellstar®, cat. no. 660175) and cultivated for batch production. Cells were harvested from the culture flasks by short treatment (2 to 5 min) with Accutase (PAA, cat. no. L^11-007), resuspended in selection medium (see above) and centrifuged at 200×g for 5 min. Cells were resuspended in a mixture of 90% of FCS and 10% of dimethyl sulfoxide and stored frozen in liquid nitrogen.
A membrane preparation was obtained by standard methods from the afore-described CHO Flp-In cell line constitutively overexpressing the human Edg 1 receptor. Briefly, the cryopreserved cells were taken in culture and grown until confluency in T175 cell culture flasks (Becton Dickinson, cat. no. 35 5001). […]

| activation at 10 µM [%] | Structure (SMILES) |
| --- | --- |
| 101 | CCCOc1nc(Oc2cc(F)ccc2F)nc2oc(-c3cc(C)c(OCC(=O)N4CCC[C@H]4C(=O)O)c(C)c3)nc12 [Example 1, (S)-1-(2-{4-[5-(2,5-Difluorophenoxy)-7-propoxyoxazolo[5,4-d]pyrimidin-2-yl]-2,6-dimethylphenoxy}acetyl)pyrrolidine-2-carboxylic acid] |
| 96 | CCCOc1nc(Oc2ccccc2F)nc2oc(-c3cc(C)c(OCC(=O)N4CCC[C@H]4C(=O)O)c(C)c3)nc12 [Example 3, (S)-1-(2-{4-[5-(2-Fluorophenoxy)-7-propoxyoxazolo[5,4-d]pyrimidin-2-yl]-2,6-dimethylphenoxy}acetyl)pyrrolidine-2-carboxylic acid] |
| 79 | CCCOc1nc(Oc2ccc(C)c(F)c2)nc2oc(-c3cc(C)c(OCC(=O)N4CCC[C@H]4C(=O)O)c(C)c3)nc12 [Example 5, (S)-1-(2-{4-[5-(3-Fluoro-4-methylphenoxy)-7-propoxyoxazolo[5,4-d]pyrimidin-2-yl]-2,6-dimethylphenoxy}acetyl)pyrrolidine-2-carboxylic acid] |
| 112 | CCCOc1nc(Oc2cccnc2)nc2oc(-c3cc(C)c(OCC(=O)N4CCC[C@H]4C(=O)O)c(C)c3)nc12 [Example 6, (S)-1-(2-{2,6-Dimethyl-4-[7-propoxy-5-(pyridin-3-yloxy)oxazolo[5,4-d]pyrimidin-2-yl]phenoxy}acetyl)pyrrolidine-2-carboxylic acid] |
| 90 | CCCOc1nc(Oc2ccc(F)cc2F)nc2oc(-c3cc(C)c(OCC(=O)N4CCC[C@H]4C(=O)O)c(C)c3)nc12 [Example 7, (S)-1-(2-{4-[5-(2,4-Difluorophenoxy)-7-propoxyoxazolo[5,4-d]pyrimidin-2-yl]-2,6-dimethylphenoxy}acetyl)pyrrolidine-2-carboxylic acid] |
| 108 | CCCOc1nc(Oc2ccccc2)nc2oc(-c3cc(C)c(OCC(=O)N4CCC[C@H]4C(=O)O)c(C)c3)nc12 [Example 8, (S)-1-{2-[2,6-Dimethyl-4-(5-phenoxy-7-propoxyoxazolo[5,4-d]pyrimidin-2-yl)phenoxy]acetyl}pyrrolidine-2-carboxylic acid] |
| 128 | CCCOc1nc(Oc2cccc(Cl)c2)nc2oc(-c3cc(C)c(OCC(=O)N4CCC[C@H]4C(=O)O)c(C)c3)nc12 [Example 9, (S)-1-(2-{4-[5-(3-Chlorophenoxy)-7-propoxyoxazolo[5,4-d]pyrimidin-2-yl]-2,6-dimethylphenoxy}acetyl)pyrrolidine-2-carboxylic acid] |
| 69 | CCOc1nc(Oc2cccc(Cl)c2)nc2oc(-c3cc(C)c(OCC(=O)N4CCC[C@H]4C(=O)O)c(C)c3)nc12 [Example 10, (S)-1-(2-{4-[5-(3-Chlorophenoxy)-7-ethoxyoxazolo[5,4-d]pyrimidin-2-yl]-2,6-dimethylphenoxy}acetyl)pyrrolidine-2-carboxylic acid] |
| 100 | CCOc1nc(Oc2cccc(F)c2)nc2oc(-c3cc(C)c(OCC(=O)N4CCC[C@H]4C(=O)O)c(C)c3)nc12 [Example 11, (S)-1-(2-{4-[7-Ethoxy-5-(3-fluorophenoxy)oxazolo[5,4-d]pyrimidin-2-yl]-2,6-dimethylphenoxy}acetyl)pyrrolidine-2-carboxylic acid] |

The remaining lines, values behind:

| Structure (SMILES) | activation at 10 µM [%] |
| --- | --- |
| CCCOc1nc(OC2CCCC[C@H]2F)nc2oc(-c3cc(C)c(OCC(=O)N4CCC[C@H]4C(=O)O)c(C)c3)nc12 (stereo partly drawn) [Example 2, (S)-1-(2-{4-[5-(trans-2-fluorocyclohexyloxy)-7-propoxyoxazolo[5,4-d]pyrimidin-2-yl]-2,6-dimethylphenoxy}acetyl)pyrrolidine-2-carboxylic acid] | 97 |
| CCCOc1nc(Oc2cc(F)ccc2C)nc2oc(-c3cc(C)c(OCC(=O)N4CCC[C@H]4C(=O)O)c(C)c3)nc12 [Example 4, (S)-1-(2-{4-[5-(5-Fluoro-2-methylphenoxy)-7-propoxyoxazolo[5,4-d]pyrimidin-2-yl]-2,6-dimethylphenoxy}acetyl)pyrrolidine-2-carboxylic acid] | 110 |
| CCOc1nc(Oc2ccccc2F)nc2oc(-c3cc(C)c(OCC(=O)N4CCC[C@H]4C(=O)O)c(C)c3)nc12 [Example 12, (S)-1-(2-{4-[7-Ethoxy-5-(2-fluorophenoxy)oxazolo[5,4-d]pyrimidin-2-yl]-2,6-dimethylphenoxy}acetyl)pyrrolidine-2-carboxylic acid] | 70 |
| CCOc1nc(Oc2cc(F)ccc2F)nc2oc(-c3cc(C)c(OCC(=O)N4CCC[C@H]4C(=O)O)c(C)c3)nc12 [Example 13, (S)-1-(2-{4-[5-(2,5-Difluorophenoxy)-7-ethoxyoxazolo[5,4-d]pyrimidin-2-yl]-2,6-dimethylphenoxy}acetyl)pyrrolidine-2-carboxylic acid] | 95 |
| CCOc1nc(Oc2cc(F)ccc2C)nc2oc(-c3cc(C)c(OCC(=O)N4CCC[C@H]4C(=O)O)c(C)c3)nc12 [Example 14, (S)-1-(2-{4-[7-Ethoxy-5-(5-fluoro-2-methylphenoxy)oxazolo[5,4-d]pyrimidin-2-yl]-2,6-dimethylphenoxy}acetyl)pyrrolidine-2-carboxylic acid] | 99 |
| CCCOc1nc(N(C)CCC(F)(F)F)nc2oc(-c3cc(C)c(OCC(=O)N4CCC[C@H]4C(=O)O)c(C)c3)nc12 [Example 15, (S)-1-[2-(2,6-Dimethyl-4-{5-[methyl-(3,3,3-trifluoropropyl)amino]-7-propoxyoxazolo[5,4-d]pyrimidin-2-yl}phenoxy)acetyl]pyrrolidine-2-carboxylic acid] | 42 |
| CCCOc1nc(OCC2CCC2)nc2oc(-c3cc(C)c(OCC(=O)N4CCC[C@H]4C(=O)O)c(C)c3)nc12 [Example 16, (S)-1-{2-[4-(5-Cyclobutylmethoxy-7-propoxyoxazolo[5,4-d]pyrimidin-2-yl)-2,6-dimethylphenoxy]acetyl}pyrrolidine-2-carboxylic acid] | 85 |
